Results as given in patent publication US8106197B2, “Aminoheteroaryl compounds as protein kinase inhibitors” (Pfizer Inc., priority 2003, dated 2012).

Target: T1, HGFR (Homo sapiens, UniProt P08581)
T1 construct: purchased Upstate 14-526
Experiment: HGFR continuous-coupled spectrophotometric assay
Type: biochemical
Conditions: not given

T1 sequence (P08581 974-1390 limits assumed): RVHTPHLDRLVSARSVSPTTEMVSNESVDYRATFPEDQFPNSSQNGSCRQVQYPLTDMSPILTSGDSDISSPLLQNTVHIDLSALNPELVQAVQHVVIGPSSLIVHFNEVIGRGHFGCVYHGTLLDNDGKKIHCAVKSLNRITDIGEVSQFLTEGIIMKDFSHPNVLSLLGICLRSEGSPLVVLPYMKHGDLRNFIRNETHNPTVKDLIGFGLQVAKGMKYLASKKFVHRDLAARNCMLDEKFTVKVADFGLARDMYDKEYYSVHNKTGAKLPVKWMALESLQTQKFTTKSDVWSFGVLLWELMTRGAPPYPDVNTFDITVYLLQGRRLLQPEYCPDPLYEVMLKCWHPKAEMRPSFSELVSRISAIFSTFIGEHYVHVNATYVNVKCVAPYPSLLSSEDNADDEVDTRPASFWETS

Structure (SMILES)	% inhibition
Nc1ncc(-c2ccc(C(=O)N3CCC(N4CCCC4)CC3)cc2)cc1OCc1nc(NCCO)c2ccccc2n1	% inhibition = 7
Nc1ncc(-c2ccc(C(=O)N3CCC(N4CCCC4)CC3)cc2)cc1OCc1ccncc1	% inhibition = 10
Nc1ncc(-c2ccc(C(=O)N3CCC(N4CCCC4)CC3)cc2)cc1OCc1cc(F)c(F)c(F)c1	% inhibition = 19
Nc1ncc(-c2ccc(C(=O)N3CCC(N4CCCC4)CC3)cc2)cc1OCc1nnsc1Cl	% inhibition = 10
Nc1ncc(-c2ccc(C(=O)N3CCC(N4CCCC4)CC3)cc2)cc1OCc1ccccc1-c1ccccc1	% inhibition = 22
Nc1ncc(-c2ccc(C(=O)N3CCC(N4CCCC4)CC3)cc2)cc1OCc1cccc(C(=O)NCc2ccncc2)c1	% inhibition = 10
Nc1ncc(-c2ccc(C(=O)N3CCC(N4CCCC4)CC3)cc2)cc1OCc1ccccn1	% inhibition = 16
Nc1ncc(-c2ccc(C(=O)N3CCC(N4CCCC4)CC3)cc2)cc1OCc1ccc(C(=O)NC2CCN(Cc3ccccc3)C2)cc1 (stereo not drawn)	% inhibition = 24
Cc1cc(=O)n2nc(COc3cc(-c4ccc(C(=O)N5CCC(N6CCCC6)CC5)cc4)cnc3N)nc2[nH]1	% inhibition = 18
Nc1ncc(-c2ccc(C(=O)N3CCC(N4CCCC4)CC3)cc2)cc1OCc1cccc(OC(F)(F)F)c1	% inhibition = 13
Nc1ncc(-c2ccc(C(=O)N3CCC(N4CCCC4)CC3)cc2)cc1OCc1ccc(C(=O)NCc2ccccn2)cc1	% inhibition = 7
Nc1ncc(-c2ccc(C(=O)N3CCC(N4CCCC4)CC3)cc2)cc1OCc1cn2cccnc2n1	% inhibition = 16
Nc1ccc(-c2ccc(C(=O)N3CCC(N4CCCC4)CC3)cc2)cc1OC1OC(=O)c2ccccc21 (stereo not drawn)	% inhibition = 4
COc1ccnc(COc2cc(-c3ccc(C(=O)N4CCC(N5CCCC5)CC4)cc3)cnc2N)c1OC	% inhibition = 23
Nc1ncc(-c2ccc(C(=O)N3CCC(N4CCCC4)CC3)cc2)cc1OCc1ccc(C(=O)NCCN2CCCC2)cc1	% inhibition = 10
Nc1ncc(-c2ccc(C(=O)N3CCC(N4CCCC4)CC3)cc2)cc1OCc1cc(-c2ccc(Cl)cc2)no1	% inhibition = 23
Cn1nc(C(F)(F)F)c2cc(COc3cc(-c4ccc(C(=O)N5CCC(N6CCCC6)CC5)cc4)cnc3N)sc21	% inhibition = 14

Structure (SMILES)	% inhibition
Nc1ncc(-c2ccc(C(=O)N3CCC(N4CCCC4)CC3)cc2)cc1OCc1nsc(Cl)n1	% inhibition = 5
COc1cccc(COc2cc(-c3ccc(C(=O)N4CCC(N5CCCC5)CC4)cc3)cnc2N)c1	% inhibition = 15
Nc1ncc(-c2ccc(C(=O)N3CCC(N4CCCC4)CC3)cc2)cc1OCc1ccc(F)c(C(F)(F)F)c1	% inhibition = 13
CC(C)c1ccc(COc2cc(-c3ccc(C(=O)N4CCC(N5CCCC5)CC4)cc3)cnc2N)cc1	% inhibition = 32
CCN1CCCC1CNC(=O)c1ccc(COc2cc(-c3ccc(C(=O)N4CCC(N5CCCC5)CC4)cc3)cnc2N)cc1 (stereo not drawn)	% inhibition = 18
Nc1ncc(-c2ccc(C(=O)N3CCC(N4CCCC4)CC3)cc2)cc1OCc1cc(F)ccc1C(F)(F)F	% inhibition = 26
Cn1ccnc1COc1cc(-c2ccc(C(=O)N3CCC(N4CCCC4)CC3)cc2)cnc1N	% inhibition = 14
Nc1ncc(-c2ccc(C(=O)N3CCC(N4CCCC4)CC3)cc2)cc1OCc1csc(-c2ccc(C(F)(F)F)cc2)n1	% inhibition = 21
Nc1ncc(-c2ccc(C(=O)N3CCC(N4CCCC4)CC3)cc2)cc1OCc1cc(F)ccc1F	% inhibition = 24
Cc1cc(-c2onc(C)c2COc2cc(-c3ccc(C(=O)N4CCC(N5CCCC5)CC4)cc3)cnc2N)no1	% inhibition = 22
CCc1ccn2cc(COc3cc(-c4ccc(C(=O)N5CCC(N6CCCC6)CC5)cc4)cnc3N)nc2c1	% inhibition = 9
CCOC(=O)C1CCN(C(=O)c2ccc(COc3cc(-c4ccc(C(=O)N5CCC(N6CCCC6)CC5)cc4)cnc3N)cc2)CC1	% inhibition = 16
Nc1ncc(-c2ccc(C(=O)N3CCC(N4CCCC4)CC3)cc2)cc1OCc1cn2cc(Cl)ccc2n1	% inhibition = 16
Nc1ncc(-c2ccc(C(=O)N3CCC(N4CCCC4)CC3)cc2)cc1OCc1ccc(-c2ccnc(Br)n2)cc1	% inhibition = 17
Cc1cc(C)nc(COc2cc(-c3ccc(C(=O)N4CCC(N5CCCC5)CC4)cc3)cnc2N)n1	% inhibition = 16
CCOC(=O)c1nc(COc2cc(-c3ccc(C(=O)N4CCC(N5CCCC5)CC4)cc3)cnc2N)no1	% inhibition = 8

Same assay, conditions: Table 3; Ki(μM) or I(%); test concentration not given

Structure (SMILES)	I(%)
COc1cc(C(=O)N2C[C@@H](C)N[C@@H](C)C2)cc(OC)c1-c1cnc(N)c(OC(C)c2c(Cl)ccc(F)c2Cl)c1 (stereo partly drawn) [Example I-550, (4-{6-Amino-5-[1-(2,6-dichloro-3-fluoro-phenyl)-ethoxy]-pyridin-3-yl)-3,5-dimethoxy-phenyl)-(dimethyl-piperazin-1-yl)-methanone]	15
CC(Oc1cc(-c2ccccc2C(F)(F)F)cnc1N)c1c(Cl)ccc(F)c1Cl (stereo not drawn) [Example I-559, 3-[1-(2,6-Dichloro-3-fluoro-phenyl)-ethoxy]-5-(2-trifluoromethyl-phenyl)-pyridin-2-ylamine]	4
C[C@@H]1CN(C(=O)c2ccc(-c3cnc(N)c(OCc4cccc(F)c4C(F)(F)F)c3)cc2)C[C@H](C)N1 [Example I-619, {4-[6-Amino-5-(3-fluoro-2-trifluoromethyl-benzyloxy)-pyridin-3-yl]-phenyl}-(3,5-dimethyl-piperazin-1-yl)-methanone]	16
Nc1ncc(-c2ccc(C(=O)N3CCC(N4CCCC4)CC3)cc2)cc1OCC1CCCCC1 [Example I-628, [4-(6-Amino-5-cyclohexylmethoxy-pyridin-3-yl)-phenyl]-(4-pyrrolidin-1-yl-piperidin-1-yl)-methanone]	7
CC1CN(C(=O)c2ccc(-c3cnc(N)c(OCc4ccccc4)c3)cc2)CC(C)N1 (stereo not drawn) [Example I-621, {4-(6-Amino-5-benzyloxy-pyridin-3-yl)-phenyl]-(3,5-dimethyl-piperazin-1-yl)-methanone]	6
COC(=O)c1cccc(COc2cc(-c3ccc(C(=O)N4CC(C)NC(C)C4)cc3)cnc2N)c1 (stereo not drawn) [Example I-626, 3-{2-Amino-5-[4-(3,5-dimethyl-piperazine-1-carbonyl)-phenyl]-pyridin-3-yloxymethyl}-benzoic acid methyl ester]	0

Same assay, conditions: Table 5; percent c-MET inhibition at 50 nM

Structure (SMILES)	inhibition at 0.05 µM [%]
CC(=O)NC1CCN(C(=O)c2ccc(-c3cnc(N)c(OC(C)c4c(Cl)ccc(F)c4Cl)c3)cc2)C1 (stereo not drawn)	77
CC(Oc1cc(-c2ccc(C(=O)NC[C@@H](C)O)cc2)cnc1N)c1c(Cl)ccc(F)c1Cl (stereo partly drawn)	79
CC(O)CCNC(=O)c1ccc(-c2cnc(N)c(OC(C)c3c(Cl)ccc(F)c3Cl)c2)cc1 (stereo not drawn)	77
CC(Oc1cc(-c2ccc(C(=O)N3CCN(CCC#N)CC3)cc2)cnc1N)c1c(Cl)ccc(F)c1Cl (stereo not drawn)	77
CC(Oc1cc(-c2ccc(C(=O)N[C@H]3CC[C@H](O)CC3)cc2)cnc1N)c1c(Cl)ccc(F)c1Cl (stereo partly drawn) [drawing 1039]	73
CC1CCCN(C(=O)c2ccc(-c3cnc(N)c(OC(C)c4c(Cl)ccc(F)c4Cl)c3)cc2)C1 (stereo not drawn)	65

Same assay, conditions: Table 6; percent c-MET inhibition at 1 μM; read-out: % inhibition

Structure (SMILES)	inhibition at 1 µM [%]
Cc1nc(CCNC(=O)c2cnc(N)c(OCc3c(Cl)cccc3Cl)c2)c[nH]1	23
Nc1ncc(C(=O)NCc2ccc(F)cc2)cc1OCc1c(Cl)cccc1Cl	32
Nc1ncc(C(=O)NCc2cc3cc[nH]c3cn2)cc1OCc1c(Cl)cccc1Cl	28
Cc1cnc(CNC(=O)c2cnc(N)c(OCc3c(Cl)cccc3Cl)c2)cn1	33
Nc1ncc(C(=O)N2CCN(CCCN3CCOCC3)CC2)cc1OCc1c(Cl)cccc1Cl	40
Nc1ncc(C(=O)NCCc2ccc(S(N)(=O)=O)cc2)cc1OCc1c(Cl)cccc1Cl	30
CC(CCCC(C)(C)O)NC(=O)c1cnc(N)c(OCc2c(Cl)cccc2Cl)c1 (stereo not drawn)	35
COc1ccc(C(CCO)NC(=O)c2cnc(N)c(OCc3c(Cl)cccc3Cl)c2)cc1 (stereo not drawn)	22
CN(C)C(CNC(=O)c1cnc(N)c(OCc2c(Cl)cccc2Cl)c1)c1cccnc1 (stereo not drawn)	18
Nc1ncc(C(=O)N2CCC(COCc3ccccc3F)CC2)cc1OCc1c(Cl)cccc1Cl	10
Nc1ncc(C(=O)NCCc2c[nH]c3ccc(O)cc23)cc1OCc1c(Cl)cccc1Cl	29
CN(C)CCNC(=O)c1cnc(N)c(OCc2c(Cl)cccc2Cl)c1	29
NC(=O)C1CCN(C(=O)c2cnc(N)c(OCc3c(Cl)cccc3Cl)c2)CC1	29
Cc1nc[nH]c1CN1CCC2(CC1)CC(NC(=O)c1cnc(N)c(OCc3c(Cl)cccc3Cl)c1)CO2 (stereo not drawn)	30
Nc1ncc(C(=O)N2CCCC(O)(COc3cccc(F)c3)C2)cc1OCc1c(Cl)cccc1Cl (stereo not drawn)	36
Nc1ncc(C(=O)NCCN2CCOCC2)cc1OCc1c(Cl)cccc1Cl	31
COc1cc(CCNC(=O)c2cnc(N)c(OCc3c(Cl)cccc3Cl)c2)ccc1O	32
NC(=O)c1ccc(CC2CCN(C(=O)c3cnc(N)c(OCc4c(Cl)cccc4Cl)c3)CC2)cc1	12
Nc1ncc(C(=O)N2CCC3(CC2)CC(N2CCC(O)CC2)CO3)cc1OCc1c(Cl)cccc1Cl (stereo not drawn)	28
Nc1ncc(C(=O)N2CCCC(Cc3ncccn3)C2)cc1OCc1c(Cl)cccc1Cl (stereo not drawn)	25
Nc1ncc(C(=O)N2CCC(O)C2)cc1OCc1c(Cl)cccc1Cl (stereo not drawn)	83
Nc1ncc(C(=O)N2CCC3(CC2)CC3C(=O)N2CCCCC2)cc1OCc1c(Cl)cccc1Cl (stereo not drawn)	26
Nc1ncc(C(=O)N2CCC(O)CC2)cc1OCc1c(Cl)cccc1Cl	35
Nc1ncc(C(=O)NCCc2c[nH]cn2)cc1OCc1c(Cl)cccc1Cl	29
CC(C)CC(NC(=O)c1cnc(N)c(OCc2c(Cl)cccc2Cl)c1)C(N)=O (stereo not drawn)	40
Nc1ncc(C(=O)NCc2ncccc2O)cc1OCc1c(Cl)cccc1Cl	24
CN(CC(N)=O)C(=O)c1cnc(N)c(OCc2c(Cl)cccc2Cl)c1	39
